# Tests used:
# YAP1 [1] = experiment: YAP1 nuclear localization in aged ECs cultured on FN-coated microcontact-printed islands; format: cell-based, human; details: aged ECs on the large island (2500 μm2), ML141 500 nM, compared to those without ML141 treatment
# Protocol: To directly analyze whether EC size controls YAP1 activity, we prepared microcontact-printed substrates consisting of square FN-coated islands (600-2500 μm2) surrounded by non-adhesive regions, in which we directly stamped FN (50 μg/ml) onto activated polydimethylsiloxane-coated cover slips and blocked unstamped areas with Pluronic F-127 [49, 50]. […] In contrast, when we cultured 24M old mouse lung ECs on the large islands, YAP1 was excluded from the nucleus, while YAP1 was in the nucleus on the medium size islands (FIGS. 6D and 6E).
# (§1) In an in vitro cell culture study human adipose endothelial cells were treated with ML141 (500 nM with DMSO). In an in vivo mouse study hydrogel mixed with young or aged human endothelial cells or in combination with ML141 (500 nM with DMSO) was implanted on the back of the immunocompromised mouse. One week later, the gel was removed and analyzed blood vessel formation using immunohistochemical analysis.
# Microcontact printing system—Stamps were created using soft lithography as described previously. Polydimethylsiloxane (PDMS) stamps were made by casting the polymer against master molds made by standard photolithography using the negative photoresist SU-8 (MicroChem). Substrates for stamping were fabricated by spin-coating a thin layer of PDMS (Sylgard-184, Dow Corning) onto glass coverslips. […]
# aged human adipose ECs = experiment: Mouse subcutaneous fibrin gel implantation (blood vessel formation and dextran leakage); format: in vivo, NSG mouse
# Protocol: as §1
# Mouse subcutaneous fibrin gel implantation—The in vivo animal study was carried out in strict accordance with the recommendations in the Guide for the Care and Use of Laboratory Animals of the National Institutes of Health. The protocol was reviewed and approved by the Animal Care and Use Committee of Medical College of Wisconsin. NOD scid gamma (NSG) mice (8 week old; Jackson Laboratory) and C57BL6 mice (Jackson Laboratory and NIA/NIH rodent colonies) were used for the study. Fibrin gel was fabricated as described. […] Vascular network formation of GFP-labeled human adipose ECs was evaluated by measuring the area and length of GFP-labeled blood vessels from five different areas of the gel. The vascular permeability was measured using low MW fluorescently labeled dextran (MW 4000, Sigma) leakage. […]
# CDC42 = target: T1, CDC42 (Homo sapiens, UniProt P60953); experiment: GTP-CDC42 levels by immunofluorescence in aged human adipose ECs treated with ML141; format: cell-based; details: ECs from >50 y.o. human adipose tissues, ML141 500 nM
# T1 construct: endogenous in cells; host or cells: primary endothelial cells isolated from >50 y.o. human adipose tissue
# T1 sequence (P60953 whole entry): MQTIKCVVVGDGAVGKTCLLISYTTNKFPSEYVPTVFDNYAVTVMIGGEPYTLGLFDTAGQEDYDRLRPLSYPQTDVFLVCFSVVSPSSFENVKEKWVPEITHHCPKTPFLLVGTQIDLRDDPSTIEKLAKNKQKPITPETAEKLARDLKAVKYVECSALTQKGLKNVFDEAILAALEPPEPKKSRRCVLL
# Excerpt: (§2) FIGS. 3A-3F show CDC42-YAP1 mediates cell size-dependent changes in EC senescence in aged ECs. (FIG. 3A) Representative immunoblots showing YAP1, YAP1S127 phosphorylation, and β-actin protein levels in ECs isolated from >50 y.o. human adipose tissues treated with retrovirus overexpressing full-length YAP1 or YAP1S127A (left). Graph showing the quantification of immunoblots (right, n=3, *, p<0.05). (FIG. 3B) IF micrographs showing P16^INK4A expression and DAPI in ECs isolated from >50 y.o. human adipose tissues treated with retrovirus overexpressing full-length YAP1 or YAP1S127A, cultured on FN-coated island of different sizes. Scale bar, 10 (FIG. 3C) Graph showing quantification of P16^INK4A integrated density (n=7, mean±s.e.m., *, p<0.05). […] Graph showing quantification of GTP-CDC42 integrated density (n=7, mean±s.e.m., *, p<0.05). […] Graph showing the quantification of immunoblots (bottom, n=3, *, p<0.05). […] Scale bar, Graphs showing quantification of P16^INK4A integrated density (bottom left) and nuclear YAP1 (bottom right) (n=7, mean±s.e.m., *, p<0.05).
# (§3) In an in vitro cell culture study human adipose endothelial cells were treated with ML141 (500 nM with DMSO). […] One week later, the gel was removed and analyzed blood vessel formation using immunohistochemical analysis.
# [2] = system: ECs isolated from >50 y.o. human adipose tissues; experiment: EC senescence (p16INK4A staining) in aged ECs cultured on FN-coated microcontact-printed islands; format: cell-based; details: aged ECs on the large island (2500 μm2), ML141 500 nM, compared to those without ML141 treatment
# Protocol: as §1
# EC proliferation was analyzed by a BrdU incorporation assay or a Click-iT® Plus EdU Proliferation Assay. Mouse lung and human adipose ECs were plated in EBM2 with 2% serum, pulsed with 5 μM BrdU for 16 h, immunostained and imaged using a confocal Leica SP5 microscope. Cellular senescence was characterized using a SA-β galactosidase assay kit (cell signaling) or anti-P16^INK4A staining. The specificity of P16^INK4A staining was confirmed by 2nd Ab alone staining (Supplementary FIG. 1D). The microscopic images were analyzed on at least five images using imageJ software (NIH) and the same contrast and brightness were used to compare the images.
# Microcontact printing system—Stamps were created using soft lithography as described previously. Polydimethylsiloxane (PDMS) stamps were made by casting the polymer against master molds made by standard photolithography using the negative photoresist SU-8 (MicroChem). […]
# YAP1 [3] = experiment: Immunoblot of YAP1S127 phosphorylation in aged human adipose ECs treated with ML141; format: cell-based; details: ML141 500 nM, compared to those without ML141 treatment
# Excerpt: as §2, §3
structure (smiles),measurement,setting,value
COc1ccc(C2CC(c3ccccc3)=NN2c2ccc(S(N)(=O)=O)cc2)cc1 (stereo not drawn) [ML141],"levels of nuclear YAP1, times higher",YAP1 [1],1.2 times
same,"aged EC-derived blood vessel length, times longer","aged human adipose ECs; fibrin gel with aged human adipose ECs, ML141 500 nM in gel, subcutaneous in NSG mouse, 7 days",2.5 times
same,leakage of fluorescently labeled dextran in the gel,"aged human adipose ECs; gel with aged ECs, ML141 500 nM, dextran by systemic injection",attenuated the leakage of dextran
same,CDC42 activity (GTP-CDC42 integrated density),CDC42,Inhibition of CDC42 activity
same,"intensity of senescence marker p16INK4A, lower",[2],45%
same,decrease in YAP1S127 phosphorylation,YAP1 [3],72%

# From patent US12433871B2, “Effects of age-dependent changes in cell size on endothelial cell growth” (The Medical College of Wisconsin, Inc., priority 2019, dated 2025)
